Reference: patent US20040220277A1, “Enantiomeric amphetamine compositions” (priority 2003, published 2004)

What was measured:
Rj: Wistar (Han) rats = experiment: EEG sleep-wake cycle in conscious freely-moving rats; format: in vivo, rat
Protocol: They were supplied by Elevage Janvier, 53940 Le Genest-Saint-Isle, France.
Implanted animals were individually placed in transparent perspex boxes in a soundproof, light-controlled, ventilated cabin and were habituated to the recording environment for at least 10 days. Drug-free baseline EEG was recorded for 23 hours. Then the rats were administered vehicle and the EEG recorded for another 23 hours. The next day, rats were treated with one of the 4 amphetamine forms first at the dose of 3 mg/kg, than at the dose of 1 mg/kg. The following variables were measured: latency to the appearance of stable slow-wave sleep (SWS), latency to the first appearance of rapid-eye-movement sleep (REM), the number of REM sleep phases, and the distribution percentage of wake/SWS/REM (sleep architecture).
Test sessions following treatment were individually compared with corresponding control sessions. As no differences were apparent after vehicle, the 2 control sessions with and without vehicle, were averaged.

Rats = experiment: Weight gain, food and water intake in rats with 3 hours per day access; format: in vivo, rat; conditions: for Body weight gain: once a day dosing, measured every day; for Water intake: once a day, one hour before 3 h access to food and water; for Food intake: over the 3 hours of access each day, 10 day period
Protocol: Rats were given access to food and water for 3 hours per day. The acclimation period was 10 days. Thereafter, vehicle or doses of l- or d-amphetamine sulphate were administered to the rats once a day one hour before access to food and water. Body weight was measured every day (FIG. 11) before the drug administration and then food intake (FIG. 12) and water intake were measured over the 3 hours each day when the rats had access to the same.

[1] = system: spontaneously hypertensive rat (SHR); experiment: Behavioural study, multiple Random-Interval/Extinction operant schedule in the SHR model of ADHD; format: in vivo; conditions: for General activity level (total number of lever presses), overactivity / Impulsiveness (number of responses with short IRTs): d 0.5-1.5 mg/kg, l 1.0-3.0 mg/kg i.p.; for Sustained attention following transformation: transformed data, saline as baseline, FIG. 6
Text: (§1) Subjects: A total number of 32 male rats, 16 spontaneously hypertensive (SHR) and 16 Wistar/Kyoto (WKY), participated in final part of this study. (Initially, 8 extra rats, 6 SHRs and 2 controls, were trained with a view to select two groups of 16 with the greatest difference in baseline measures. However, there was little difference when comparing all the rats with a selected subgroup—they both separated well.) At the start of testing, the rats were ˜5 wk old and experimentally naive. Young rats were required, as ADHD primarily is a child and adolescent disorder. The SHRs were obtained from Charles River Italy (SHR/Cr1 Ico) and the WKYs from Charles River France (WKY/Nico) as other breeding centers were unable to deliver rats at the time we needed them. At the University of Oslo, the rats were housed individually in 41×25×25 (height) cm transparent cages and had free access to food (BK Standard RM 1 from Beekay Feeds Universal Ltd.).
(§2) The rats had access to water at all times during the habituation period. However, after completing the habituation period, the rats were deprived of water for 21 hr a day. The rats received water as reinforcers during the experimental session and had free access to water for 90 min after the experimental session. The temperature in the housing area was ˜20° C. The light in the housing area was on from 0700 to 1900 hours. The behavioral training took place between 0900 and 1230 hours seven days a week.
(§3) Behavioral apparatus: Sixteen Campden Instruments operant chambers were used in the study. The animal working space in eight of the chambers is 25×25×30 (height) cm and 25×25×20 (height) cm in the other eight chambers. The 2.8-W house light and a fan producing a low masking noise were on during the entire experimental session.
(§4) During training sessions, either one or two retractable levers were used. A 2.8-W cue light was located above each lever. The rats' response consisted of pressing one of the levers with a dead weight of at least 3 g to activate a microswitch. The reinforcers (0.01 ml tap water) were delivered by a liquid dipper located in a small recessed cubicle with a 2.8-W cue light lit when a reinforcer is presented. A 7×5 cm transparent plastic lid separated the cubicle from the rat's working space. The rat could easily open the lid with a light push with the nose or paw. Each chamber was ventilated and placed in a sound-resistant outer housing. A computer and an online system (SPIDER, Paul Fray, Ltd., UK) recorded the behavior and scheduled reinforcers (drops of water).
Before the initiation of the study, the rats were randomized and balanced into two groups. Each group of rats consisted of an equal number of SHRs and WKYs. Each rat was assigned to a specific chamber, which it occupied during all sessions. The rat was returned to its living cage after each session. All animals were run seven days a week.
Response acquisition: The training period started with a single 30-min habituation session. During the habituation session, the lid between the working space and the reinforcement cubicle was kept open. No lever was present and no cue light above any lever was lit. The house light was on. From this time on the rats were deprived of water for 21 hr a day; this is a moderate, but sufficient deprivation for motivating the animal.
The habituation session was followed by two 30-min magazine training sessions. The lid was taped open, no levers were present, and the house light was on, but the cue lights above the levers were not lit. The computer delivered water on the average every 10s independent of the rat's behavior (a variable-time schedule).
In the next two sessions, the rat was trained to open the lid to gain access to the water. The lid was not taped open, no levers were present and the lights above the levers were not activated. The house light was on. Each lid opening was followed by a presentation of a single drop of water. […]

Wistar Kyoto Rat (WKY) = experiment: Behavioural study, multiple Random-Interval/Extinction operant schedule in WKY controls; format: in vivo; conditions: single isomers; for General activity level: FIG. 3; for Impulsiveness: FIG. 4
Text: as §1, §2, §3, §4
Before the initiation of the study, the rats were randomized and balanced into two groups. Each group of rats consisted of an equal number of SHRs and WKYs. Each rat was assigned to a specific chamber, which it occupied during all sessions. […]

[2] = system: noradrenaline (NA) release, frontal cortex; experiment: Basal release of tritiated noradrenaline from rat brain slices in vitro (Brandel system); format: cell-based
Protocol: The DA and NA release is measured in separate brain areas, i.e., in striatum for DA release (evaluating tritiated dopamine) and in the frontal cortex for NA release (evaluating tritiated noradrenaline), using a Brandel system. The brain slices are loaded with the tritiated monoamine (dopamine or noradrenaline) and then superfused to produce basal neurotransmitter release. The slices are also subjected to 2 short periods of electrical stimulation to effect stimulated transmitter release.

[3] = between 4 and 8 h after administration, 3 mg/kg

Row | Compound | REM sleep (Rj: Wistar (Han) rats; between 4 and 8 h after administration, 1 mg/kg) | Body weight gain (Rats) | Water intake (Rats) | Food intake (Rats) | Delay to onset of REM sleep compared with the other dose (Rj: Wistar (Han) rats; 3 mg/kg) | Effects on SWS and wake compared with the l-isomer (Rj: Wistar (Han) rats; 3 mg/kg, first 4 h of recording) | SWS (Rj: Wistar (Han) rats; [3]) | Waking (Rj: Wistar (Han) rats; [3]) | Duration of effects on the sleep-wake cycle (Rj: Wistar (Han) rats; rat, in vivo) | Overall potency on the sleep-wake cycle (Rj: Wistar (Han) rats; rat, in vivo) | General activity level (total number of lever presses), overactivity ([1]; FIG. 3) | General activity level (total number of lever presses), overactivity ([1]; FIG. 3, listed as D-amphetamine) | Impulsiveness (number of responses with short IRTs) ([1]; FIG. 4) | Impulsiveness (number of responses with short IRTs) ([1]; FIG. 4, listed as D-amphetamine) | Sustained attention following transformation [1] | General activity level (Wistar Kyoto Rat (WKY)) | Impulsiveness (Wistar Kyoto Rat (WKY)) | Potency in releasing NA from cortex compared with DA from striatum [2] | Sustained attention, performance versus saline ([1]; 2 mg/kg, T-test with dependent samples, p <0.01) | Sustained attention (percentage of correct lever choices) ([1]; low doses, untransformed, FIG. 5)
1 | CC(N)Cc1ccccc1.NC(CC(=O)O)C(=O)O (racemic) [dl-amphetamine aspartate] | reduced | – | – | – | – | – | – | – | – | – | – | – | – | – | – | – | – | – | – | –
2 | C[C@H](N)Cc1ccccc1 [d-amphetamine] | – | dose-related reductions | little effect | decreased food intake over the measured 10 day period | tended to be longer | significantly greater than the l-isomer | reduced | increased | longer lasting | more potent than l-amphetamine | reduced | more than l-amphetamine | reduced | more than l-amphetamine | disappeared | unaffected | unaffected | – | – | –
3 | C[C@@H](N)Cc1ccccc1 [l-amphetamine] | – | dose-related reductions | little effect | decreased food intake over the first 1-2 days only | – | – | – | – | – | – | reduced | – | less efficient than d-amphetamine | – | significant improvement | unaffected | unaffected | considerably more potent at releasing NA from cortex than DA from striatum | performed better | improved sustained attention more markedly than low doses of d-amphetamine
